Reference: US20210318315A1, “ULTRA-HIGH-THROUGHPUT MICROFLUIDIC ENZYME SCREENING PLATFORM FOR ENZYME DEVELOPMENT” (National University of Singapore, priority 2020, published 2021)

Key:
[1] = tested on: fluorescent protein-based NAD^+ biosensor (fluorescent core domain and bipartite NAD^+ binding domain); assay: NAD^+ detection with fluorescent protein biosensor in microdroplets (fluorescence quenching by NAD^+ binding); assay type: biochemical; conditions: 1 mM of NAD^+, excitation at 488 nm, emission at 520 nm
Text: In some embodiments, the detection reagent comprises a biosensor, such as a protein biosensor, as one non-limiting example of a biosensor. The biosensor may be configured to react with the cofactor (or a redox couple of the cofactor) to generate (or quench) a luminescent signal. The generation (or quenching) of the luminescent signal may be used to detect, screen, and/or isolate droplets containing the target enzyme. In one example, the protein biosensor comprises a fluorescent core domain and a bipartite NAD+ and/or NADP+ binding domain. The fluorescent core domain has an excitation at 488 nm and an emission at 520 nm. In the presence of NAD+ and/or NADP+, the fluorescence from the core domain is quenched by binding of the NAD+ and/or NADP+ to the bipartite binding domain.
A fluorescent protein-based NAD^+ biosensor was developed for quantitative detection of NAD^+. […] In this setup, the fluorescence from the core domain was quenched by NAD^+ binding corresponding to the concentration of the bound NAD^+ (FIG. 12A). The biosensor fluorescence intensity and NAD^+ concentration were negatively correlated in the range of 1 to 1000 μM of NAD^+. […] A nearly-linear correlation between the biosensor fluorescence intensity and NAD^+ concentration was shown at range of 50 μM to 1000 μM of NAD^+.

[2] = tested on: thiolated DBC1 protein (deleted in breast cancer 1), NAD^+ binding domain linked to CdSe/CdS/CdZnS/ZnS quantum dot; assay: NAD^+ detection with quantum dot sensor linked to thiolated DBC1 protein (fluorescence quenching); assay type: biochemical; conditions: for reduction of fluorescence signal of the sensor: 1.5 μM of sensor, in microfluidics (droplets)
Procedure: (4) Preparation of thiolated DBC1 protein (deleted in breast cancer 1). DBC1 protein was prepared by treated protein with 2-iminothiolane to introduce sulfhydryl residues onto a sulfydril:protein ratio of ˜20. Five mg of DBC1 dissolved in 1 mL of PBS (pH 7.4) was allowed to react with 2 mg of 2-iminothilane.HCl and kept at 4° C. for 2 h with vortex. The resulting solution was filtered through a size-exclusion centrifugal filter device (Micron YM-30, Millipore).
(5) Preparation of DBC1 protein coated QDs. The MPA capped QDs were incubated with thiolated DBC1 protein in HEPES buffer (pH 7.4) for 5 days at 4° C.
Another example for NAD^+ sensing was developed with a quantum dot fluorescence sensor through FRET effect (FIG. 13A). The highly fluorescent CdSe quantum dot core was coated with 3-mercaptopropionic acid and linked to a NAD^+ binding domain (thiolated DBC1 protein sensor). The protein sensor was reported to specifically bind NAD^+. When such binding occurs, the fluorescence of quantum dot was effectively quenched (FIG. 13B). Consequently, the fluorescence signal of the quantum dot sensor was negatively correlated to NAD+ concentration. This allowed accurate determination of NAD^+ based on the change of fluorescence signal.
The performance of the quantum dot NAD^+ sensor was explored. The quantitative NAD^+ quenching was further examined and validated with an excitation at 538 nm and the fluorescence emission is detected at 595 nm. As concentration of NAD^+ increased, the fluorescence of the sensor was quenched at a very low NAD^+ concentration. The sensor enabled the detection of NAD^+ with a detection limit of 30 μM with a sensor concentration of 1.5 μM with a fixed incubation time of 20 minutes. When the NAD^+ concentration reached 250 μM and above, more than 90% fluorescence signal is quenched. […]
For the NAD^+ detection in microfluidics, the fluorescence of 1.5 μM of sensor was examined with different concentration of NAD^+. The fluorescence signal of the sensor reduced ˜25% when incubated with 200 μM NAD^+, and reduced 45% in the presence of 250 μM NAD^+ (FIG. 14A). […]

In the case of NC(=O)c1ccc[n+]([C@@H]2O[C@H](COP(=O)([O-])OP(=O)(O)OC[C@H]3O[C@@H](n4cnc5c(N)ncnc54)[C@H](O)[C@@H]3O)[C@@H](O)[C@H]2O)c1 [NAD^+, nicotinamide adenine dinucleotide], the “lower fluorescence signal (quenching by NAD^+)” value [1] is reported as 21%, the “reduction of fluorescence signal of the sensor” value ([2]; 200 μM NAD^+) is reported as roughly 25% and the “reduction of fluorescence signal of the sensor” value ([2]; 250 μM NAD^+) is reported as 45%. The fluorescence signal quenched ([2]; NAD^+ 250 μM and above, sensor 1.5 μM, incubation 20 minutes, excitation at 538 nm, emission at 595 nm) was “more than 90%”.
